The experiment deals with CD2F1 mice, L1210 leukemia ip, survival T/C. Kind of experiment: NCI In Vivo Anticancer Drug Screen. Data for tumor model L1210 Leukemia (intraperitoneal) in CD2F1 (CDF1) mice. The settings on record: higher = longer survival. An outline of the steps: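 Vehicle-treated tumor-bearing mice served as controls (C) for compound-treated mice (T). Reported figure is T divided by C.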

Setting [1] is: endpoint: mean survival time, dose: 100.0 mg/kg/injection, schedule: Q01DX001 (ip), vehicle: saline with Tween-80.
[2] abbreviates: endpoint: mean survival time, dose: 200.0 mg/kg/injection, schedule: Q01DX001 (ip), vehicle: saline with Tween-80.
Where [3] appears, read: endpoint: mean survival time, dose: 12.5 mg/kg/injection, schedule: Q01DX009 (ip), vehicle: saline.
[4] abbreviates: endpoint: mean survival time, dose: 25.0 mg/kg/injection, schedule: Q01DX009 (ip), vehicle: saline.
Setting [5] is: endpoint: mean survival time, dose: 100.0 mg/kg/injection, schedule: Q01DX009 (ip), vehicle: saline with Tween-80.
Where [6] appears, read: endpoint: mean survival time, dose: 200.0 mg/kg/injection, schedule: Q01DX009 (ip), vehicle: saline with Tween-80.
Where [7] appears, read: endpoint: mean survival time, dose: 400.0 mg/kg/injection, schedule: Q01DX009 (ip), vehicle: saline with Tween-80.
The mark [8] stands for this setting: endpoint: mean survival time, dose: 100.0 mg/kg/injection, schedule: Q01DX009 (ip), vehicle: saline.
Setting [9] is: endpoint: mean survival time, dose: 100.0 mg/kg/injection, schedule: Q04DX003 (ip), vehicle: saline with Tween-80.
Setting [10] is: endpoint: mean survival time, dose: 200.0 mg/kg/injection, schedule: Q04DX003 (ip), vehicle: saline with Tween-80.
Where [11] appears, read: endpoint: mean survival time, dose: 400.0 mg/kg/injection, schedule: Q04DX003 (ip), vehicle: saline with Tween-80.
[12] abbreviates: endpoint: mean survival time, dose: 50.0 mg/kg/injection, schedule: Q01DX009 (ip), vehicle: saline with Tween-80.

Where “and” joins values, the source holds several entries; their conditions need not be identical. Equal values may be shown once. Toxic doses and inconclusive results are not listed.

Turning to `O=C(Cl)N(c1ccccc1)c1ccccc1`, the T/C runs as follows: under setting [1], 91 % of control; under setting [2], 100 % of control.
Consider `CCNc1ncnc2c1c(C(N)=S)cn2C1OC(CO)C(O)C1O` (stereo unspecified), for which the T/C by setting is: (endpoint: mean survival time, dose: 6.25 mg/kg/injection, schedule: Q01DX009 (ip), vehicle: saline) 116 % of control; under setting [3], 116 % of control; under setting [4], 150 % of control.
As to `CCOC(=O)C(C=O)(NC(=O)c1ccccc1)OCC` (stereo unspecified), the T/C runs as follows: under setting [5], 100 % of control; under setting [6], 105 % of control; under setting [7], 96 % of control.
Regarding `CC(C)NCC(O)c1ccc(O)c(O)c1.[Pt].c1ccc([PH+](c2ccccc2)c2ccccc2)cc1.c1ccc([PH+](c2ccccc2)c2ccccc2)cc1`, the T/C (endpoint: median survival time, dose: 10.0 mg/kg/injection, schedule: Q04DX003 (ip), vehicle: saline with Tween-80) is 108 % of control; the T/C (endpoint: median survival time, dose: 20.0 mg/kg/injection, schedule: Q04DX003 (ip), vehicle: saline with Tween-80) is 105 % of control; the T/C (endpoint: median survival time, dose: 40.0 mg/kg/injection, schedule: Q04DX003 (ip), vehicle: saline with Tween-80) was 105 % of control; the T/C (endpoint: median survival time, dose: 50.0 mg/kg/injection, schedule: Q04DX003 (ip), vehicle: saline with Tween-80) is 101 % of control; the T/C (endpoint: median survival time, dose: 80.0 mg/kg/injection, schedule: Q04DX003 (ip), vehicle: saline with Tween-80) is 102 % of control; the T/C (endpoint: median survival time, dose: 100.0 mg/kg/injection, schedule: Q04DX003 (ip), vehicle: saline with Tween-80) was 98 % of control.
`CCN(CC)CC(=O)Nc1cccc2c1C(=O)c1c(c(O)c3ccccc3c1O)C2=O`: the T/C runs as follows: (endpoint: mean survival time, dose: 6.0 mg/kg/injection, schedule: Q04DX003 (ip), vehicle: saline with Tween-80) 94 % of control; (endpoint: mean survival time, dose: 12.0 mg/kg/injection, schedule: Q04DX003 (ip), vehicle: saline with Tween-80) 100 % of control; (endpoint: mean survival time, dose: 24.0 mg/kg/injection, schedule: Q04DX003 (ip), vehicle: saline with Tween-80) 96 % of control; (endpoint: mean survival time, dose: 48.0 mg/kg/injection, schedule: Q04DX003 (ip), vehicle: saline with Tween-80) 98 % of control.
In the case of `OCC1OC(Nc2ncnc3nc[nH]c23)C(O)C1O` (stereo unspecified), the T/C under setting [1] was 108 % of control; the T/C under setting [5] is 96 % of control; the T/C under setting [2] is 94 % of control; the T/C under setting [6] was 108 % of control; the T/C (endpoint: mean survival time, dose: 400.0 mg/kg/injection, schedule: Q01DX001 (ip), vehicle: saline with Tween-80) is 92 % of control; the T/C under setting [7] is 100 % of control.
Regarding `CCCN(CCC)C(=O)c1cccnc1`, the T/C reads like this: under setting [8], 92 % of control; (endpoint: mean survival time, dose: 200.0 mg/kg/injection, schedule: Q01DX009 (ip), vehicle: saline) 92 % of control; (endpoint: mean survival time, dose: 400.0 mg/kg/injection, schedule: Q01DX009 (ip), vehicle: saline) 97 % of control.
In the case of `CNC(=O)Oc1cccn(C(=O)NC)c1=O`, the T/C under setting [3] was 98 % of control and 101 % of control; the T/C under setting [4] was 103 % of control and 107 % of control; the T/C (endpoint: mean survival time, dose: 50.0 mg/kg/injection, schedule: Q01DX009 (ip), vehicle: saline) was 107 % of control and 109 % of control; the T/C (endpoint: mean survival time, dose: 75.0 mg/kg/injection, schedule: Q01DX009 (ip), vehicle: Klucel (hydroxypropylcellulose) (HPC)) is 112 % of control; the T/C (endpoint: mean survival time, dose: 75.0 mg/kg/injection, schedule: Q01DX009 (ip), vehicle: saline) was 104 % of control and 109 % of control and 112 % of control; the T/C under setting [8] is 115 % of control. Moreover, the T/C (endpoint: mean survival time, dose: 150.0 mg/kg/injection, schedule: Q01DX009 (ip), vehicle: saline) is 113 % of control and 110 % of control.
Consider `Cc1cc(C)cc(NC(=O)c2ccccc2N)c1`, for which the T/C is 107 % of control under setting [5], 95 % of control under setting [6] and 107 % of control under setting [7].
On to `COc1cccc2c1C(=O)c1c(OC)c(C)cc(OC)c1C2=O`, for which the T/C reads like this: (endpoint: mean survival time, dose: 12.5 mg/kg/injection, schedule: Q01DX009 (ip), vehicle: other) 113 % of control; (endpoint: mean survival time, dose: 25.0 mg/kg/injection, schedule: Q01DX009 (ip), vehicle: other) 110 % of control; (endpoint: mean survival time, dose: 50.0 mg/kg/injection, schedule: Q01DX009 (ip), vehicle: other) 110 % of control; (endpoint: mean survival time, dose: 100.0 mg/kg/injection, schedule: Q01DX009 (ip), vehicle: other) 110 % of control; (endpoint: mean survival time, dose: 200.0 mg/kg/injection, schedule: Q01DX009 (ip), vehicle: other) 117 % of control.
Consider `O=C(O)C/[N+]([O-])=N\O`, for which the T/C (endpoint: mean survival time, dose: 100.0 mg/kg/injection, schedule: Q04DX003 (ip), vehicle: saline) is 96 % of control; the T/C (endpoint: mean survival time, dose: 200.0 mg/kg/injection, schedule: Q04DX003 (ip), vehicle: saline) was 102 % of control; the T/C (endpoint: mean survival time, dose: 400.0 mg/kg/injection, schedule: Q04DX003 (ip), vehicle: saline) is 105 % of control.
Consider `CCN(CC)c1cc(Nc2c3ccc(Cl)cc3nc3cc(Cl)ccc23)ccc1O`, for which the T/C reads like this: under setting [5], 102 % of control; under setting [9], 97 % of control; under setting [6], 104 % of control; under setting [10], 100 % of control; under setting [11], 117 % of control.
Take `CN(C)CCSCC(OC(=O)c1ccccc1)c1ccccc1` (stereo unspecified): the T/C by setting is: (endpoint: mean survival time, dose: 25.0 mg/kg/injection, schedule: Q01DX009 (ip), vehicle: saline with Tween-80) 102 % of control; under setting [12], 98 % of control; under setting [5], 100 % of control.
As for `CC(CC(C)(C)C)O[Si](C)C1(C)CCCCC1` (stereo unspecified), the T/C by setting is: under setting [9], 102 % of control; under setting [10], 112 % of control; under setting [11], 106 % of control.
`CC(=O)CCc1ccc(O)cc1`: the T/C was 94 % of control under setting [5]; 97 % of control under setting [9]; 93 % of control under setting [6]; 92 % of control under setting [10]; 94 % of control under setting [7]; 92 % of control under setting [11].
Turning to `CCOCC(=O)CC(C)C`, the T/C is 100 % of control (endpoint: mean survival time, dose: 100.0 mg/kg/injection, schedule: Q04DX003 (ip), vehicle: other); 91 % of control (endpoint: mean survival time, dose: 200.0 mg/kg/injection, schedule: Q04DX003 (ip), vehicle: other); 100 % of control (endpoint: mean survival time, dose: 400.0 mg/kg/injection, schedule: Q04DX003 (ip), vehicle: other).
Regarding `O=[N+]([O-])c1ccccc1-c1nn(-c2ccccc2)c2ccccc12`, the T/C is 102 % of control (endpoint: mean survival time, dose: 12.5 mg/kg/injection, schedule: Q04DX002 (ip), vehicle: saline with Tween-80); 105 % of control (endpoint: mean survival time, dose: 25.0 mg/kg/injection, schedule: Q04DX002 (ip), vehicle: saline with Tween-80); 90 % of control (endpoint: mean survival time, dose: 50.0 mg/kg/injection, schedule: Q04DX002 (ip), vehicle: saline with Tween-80).
For the molecule `CC(=O)c1c(C(=O)O)c(=O)oc2cc(O)ccc12`, the T/C reads like this: (endpoint: mean survival time, dose: 75.0 mg/kg/injection, schedule: Q01DX001 (ip), vehicle: saline) 98 % of control; (endpoint: mean survival time, dose: 150.0 mg/kg/injection, schedule: Q01DX001 (ip), vehicle: saline) 98 % of control; (endpoint: mean survival time, dose: 300.0 mg/kg/injection, schedule: Q01DX001 (ip), vehicle: saline) 98 % of control.
For `C[S+](C)CCC(N)C(=O)O` (stereo unspecified) (tested in a mixture with another compound), the T/C was 111 % of control (endpoint: median survival time, dose: 3.13 mg/kg/injection, schedule: Q04DX002 (ip), vehicle: saline); 111 % of control (endpoint: median survival time, dose: 6.25 mg/kg/injection, schedule: Q04DX002 (ip), vehicle: saline); 111 % of control (endpoint: median survival time, dose: 12.5 mg/kg/injection, schedule: Q04DX002 (ip), vehicle: saline); 111 % of control and 108 % of control (endpoint: median survival time, dose: 25.0 mg/kg/injection, schedule: Q04DX002 (ip), vehicle: saline); 111 % of control and 94 % of control (endpoint: median survival time, dose: 50.0 mg/kg/injection, schedule: Q04DX002 (ip), vehicle: saline); 117 % of control and 100 % of control (endpoint: median survival time, dose: 100.0 mg/kg/injection, schedule: Q04DX002 (ip), vehicle: saline). Moreover, the T/C (endpoint: median survival time, dose: 400.0 mg/kg/injection, schedule: Q04DX002 (ip), vehicle: saline) was 100 % of control.
On to `CC(=O)Nc1ccccc1C(=O)C(=O)Nc1ccccc1C(=O)NN`, for which the T/C reads like this: under setting [12], 95 % of control; under setting [5], 91 % of control; under setting [6], 87 % of control.
In the case of `CCCCCOc1ccc(Cl)cc1Cl`, the T/C is 86 % of control (endpoint: mean survival time, dose: 100.0 mg/kg/injection, schedule: Q04DX002 (ip), vehicle: saline with Tween-80); 101 % of control (endpoint: mean survival time, dose: 200.0 mg/kg/injection, schedule: Q04DX002 (ip), vehicle: saline with Tween-80); 109 % of control (endpoint: mean survival time, dose: 400.0 mg/kg/injection, schedule: Q04DX002 (ip), vehicle: saline with Tween-80).
As to `CCSc1ncnc2c1ncn2C1OC(CO)C(O)C1O` (stereo unspecified), the T/C (endpoint: mean survival time, dose: 132.0 mg/kg/injection, schedule: Q04DX003 (ip), vehicle: saline with Tween-80) was 122 % of control and the T/C under setting [6] is 171 % of control.

The values are drawn from PubChem BioAssay AID256 (DTP/NCI, 2004).
